Laboratory results taken from publication PMC11491487 (Nature Communications, 2024).
Values joined by “and” are separate entries in the source; they are usually repeats but may differ in a detail not shown here. Equal values may be shown once.

What was measured:
[1] = tested on: Drosophila melanogaster RyR M4758I; assay: Bioassay of gene-edited Drosophila melanogaster (feeding, mortality after 24 h); assay type: in vivo; conditions: 24 h
[2] = tested on: Drosophila melanogaster RyR G4915E; assay: as above; assay type: in vivo; conditions: 24 h

**Q.** With Cc1cc(C(F)(C(F)(F)F)C(F)(F)F)ccc1NC(=O)c1cccc(I)c1C(=O)NC(C)(C)CS(C)(=O)=O [FLU, flubendiamide] as the molecule, how does the death rate ([1]; FLU 0.033 uM) read?
**A.** 0%

**Q.** What about the death rate ([1]; FLU 0.100 uM) of the same molecule?
**A.** 0% and 10%

**Q.** And the death rate ([1]; FLU 0.333 uM)?
**A.** 10%

**Q.** What about the death rate ([1]; FLU 1.000 uM) of the same molecule?
**A.** 10% and 20%

**Q.** And the death rate ([1]; FLU 3.333 uM)?
**A.** 20% and 30%

**Q.** And the death rate ([1]; FLU 10.000 uM)?
**A.** 50%

**Q.** And the death rate ([1]; FLU 33.333 uM)?
**A.** 60% and 70%

**Q.** And the death rate ([1]; FLU 100.000 uM)?
**A.** 100%

**Q.** And the death rate ([1]; FLU 333.333 uM)?
**A.** 100%

**Q.** What about the death rate ([2]; FLU 1.000 uM) of the same molecule?
**A.** 0%

**Q.** And the death rate ([2]; FLU 3.333 uM)?
**A.** 0%

**Q.** And the death rate ([2]; FLU 10.000 uM)?
**A.** 0%

**Q.** And the death rate ([2]; FLU 33.333 uM)?
**A.** 0%

**Q.** And the death rate ([2]; FLU 100.000 uM)?
**A.** 0%

**Q.** What about the death rate ([2]; FLU 333.333 uM) of the same molecule?
**A.** 0%
